The experiment concerns platelets. The experiment can be described thus: Secretion of PN-2/βAPP and granule markers from platelets after activation by agonists. Format: cell-based. To be noted: for PN-2/βAPP percent secreted / LDH loss (percent), marker of platelet lysis / ADP/ATP percent secreted / LA-PF4 percent secreted: collagen 20 μg/ml or thrombin 1 U/ml, 10 minutes; for fraction of total platelet PN-2/βAPP secreted on activation: freshly washed platelets. On the procedure:
Secretion of PN-2/βAPP from platelets after activation by the agonists collagen or thrombin was studied. Briefly, fresh platelets washed by albumin density gradient centrifugation and gel filtration were incubated for 30 minutes at 37° C. in the absence or presence of the combined metabolic inhibitors antimycin A (15 μg/ml), 2-deoxy-D-glucose (30 mM), and D-gluconic acid δ-lactone (10 mM). The platelets were then placed into a cuvette 37° C. water bath with stirring at 1,200 rpm, and collagen (20 μg/ml or .varies.-thrombin (1 U/ml) was added. After 10 minutes, the samples were centrifuged at 12,000 x g for 4 minutes and supernatants were collected. Aliquots were removed and quantitated for PN-2/βAPP by incubation with ^125 I-EGF BP and analysis of complex formation by SDS-PAGE and autoradiography as in Example 15. Autoradiograms were aligned with dried gels; ^125 I-EGF BP:PN-2/βAPP complexes were located, excised and quantitated in a […]. Aliquots were also quantitated for platelet markers as follows: total adenine nucleotide (ADP/ATP) secretion was measured by the method of Homsen et al., Anal. Biochem., 46:489 (1972); low affinity platelet factor 4 (LA-PF4) secretion was quantitated by the method of Rucinski et al., Blood, 53:47 (1979); and cytosolic lactate dehydrogenase (LDH) loss was assessed by the procedure of Wroblewski and Ladue, Proc. Soc. Exper. Biol. Med., 77:389 (1978), the disclosures of which are hereby incorporated by reference. Values represent the percent secreted. Percent secreted was determined from the ratio of releasate in agonist treated sample to the total amount present in detergent lysate; nonstimulated platelet supernatants were subtracted from both. Values expressed are the mean ±SEM of three experiments, each consisting of combined platelets from two donors.

The mark [1] stands for this setting: Inhibitor-Treated Platelets (antimycin A, 2-deoxy-D-glucose, D-gluconic acid δ-lactone).
Setting [2] is: Inhibitor-Treated Platelets, mean ±SEM.
Setting [3] is: Washed Platelets, 37° C., mean ±SEM of three experiments.

On to Collagen, for which the “fraction of total platelet PN-2/βAPP secreted on activation” value is “approximately one-half”. The same substance returned a PN-2/βAPP percent secreted under setting [1] of 0%. Also, where the note is “Inhibitor-Treated Platelets”, the “LDH loss (percent), marker of platelet lysis” value (shortened to “LDH loss (percent), marker”) stood at 0%. Under setting [2], this substance gave an ADP/ATP percent secreted of 1.3 ± 1.3% and an LA-PF4 percent secreted of 0%. Under setting [3], this substance came in with a PN-2/βAPP percent secreted of 46.3 ± 7.7%. Besides, where the note is “Washed Platelets, mean ±SEM”, the ADP/ATP percent secreted is on record as 45 ± 16%; the LA-PF4 percent secreted was 52 ± 11%; the “LDH loss (percent), marker” value was determined as 1.3 ± 1.3%.

Thrombin: the “fraction of total platelet PN-2/βAPP secreted on activation” value was “approximately one-half”. For the same substance, the PN-2/βAPP percent secreted under setting [1] is 0%. Also, under setting [2], the ADP/ATP percent secreted worked out at 0% and the LA-PF4 percent secreted came out at 0.4 ± 0.4%. This substance returned a PN-2/βAPP percent secreted under setting [3] of 53.7 ± 7.6%. Moreover, under “Washed Platelets, mean ±SEM”, the ADP/ATP percent secreted is reported as 68 ± 11%; the LA-PF4 percent secreted is recorded as 69 ± 6.2%; the “LDH loss (percent), marker” value worked out at 0%.

(Values after patent US5270165A, “Method of diagnosis of amyloidoses” (The Reagents of the University of California, priority 1991, dated 1993).)
